The values that follow come from ChEMBL document CHEMBL1128760, “CCKB selective receptor ligands: novel 1,3,5-trisubstituted benzazepin-2-ones” (Bioorg Med Chem Lett, 1995).

pIC50: −log10 of the molar value.

The target in this assay is T1, Cholecystokinin receptor type A (Rattus norvegicus, UniProt P30551).
T1 sequence (P30551 whole entry): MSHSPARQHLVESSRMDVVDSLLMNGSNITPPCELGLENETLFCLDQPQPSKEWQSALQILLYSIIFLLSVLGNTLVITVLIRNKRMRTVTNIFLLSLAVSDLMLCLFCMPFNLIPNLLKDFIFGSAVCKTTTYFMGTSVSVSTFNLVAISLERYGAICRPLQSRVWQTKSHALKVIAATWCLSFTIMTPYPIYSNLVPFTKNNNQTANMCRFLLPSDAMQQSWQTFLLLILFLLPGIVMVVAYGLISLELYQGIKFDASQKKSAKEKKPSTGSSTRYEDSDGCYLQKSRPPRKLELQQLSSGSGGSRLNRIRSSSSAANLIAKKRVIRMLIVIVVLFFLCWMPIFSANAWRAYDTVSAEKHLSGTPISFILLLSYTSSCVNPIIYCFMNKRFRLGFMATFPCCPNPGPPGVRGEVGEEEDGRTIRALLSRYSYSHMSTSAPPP
As to the kind of experiment: Inhibitory activity against Cholecystokinin type A receptor in rat pancreas using [125 I ]- CCK-8 as radioligand.

As to `Cc1cccc(NC(=O)N[C@@H]2C[C@H](N3CCCCCC3)c3ccccc3N(C)C2=O)c1`, the pIC50 is 6.92. With `Cc1cccc(NC(=O)N[C@@H]2C[C@@H](N3CCCCCC3)c3ccccc3N(C)C2=O)c1` the figure was 6.19.

What is called pIC50 is the negative decadic logarithm of the IC50, by convention in mol/L. The low end stands for a large IC50, the high end for a small IC50.
